Experimental data: the NIST ThermoML archive (doi:10.1021/je9005757)

Test: cn = amount concentration of the nth substance listed, in mol/dm3
Conditions: 101 kPa, Liquid; for molar conductivity: Shedlovsky-type conductance cell; for binary diffusion coefficient: Open capillary

CN[C@H](C)[C@@H](O)c1ccccc1.[Cl-].[H+] [D-α-(1-methylaminoethyl)benzyl alcohol] + O
Conditions	binary diffusion coefficient, 298.15 K [m2/s]	binary diffusion coefficient, 310.15 K [m2/s]	molar conductivity, 283.15 K [S·m2/mol]	molar conductivity, 293.15 K [S·m2/mol]	molar conductivity, 298.15 K [S·m2/mol]	molar conductivity, 303.15 K [S·m2/mol]	molar conductivity, 310.15 K [S·m2/mol]	molar conductivity, 323.15 K [S·m2/mol]
c1 = 0.001	1.13e-09	1.57e-09	–	–	–	–	–	–
c1 = 0.001841	–	–	0.006545	0.00844	0.009366	0.01041	0.01201	0.01524
c1 = 0.00244	–	–	0.006422	0.008268	0.009179	0.0102	0.01177	0.01489
c1 = 0.0025	1.12e-09	1.53e-09	–	–	–	–	–	–
c1 = 0.003031	–	–	0.006316	0.008109	0.009034	0.01001	0.01159	0.01469
c1 = 0.003615	–	–	0.006204	0.007973	0.008901	0.009837	0.01141	0.01444
c1 = 0.004193	–	–	0.006101	0.007849	0.008778	0.009703	0.01122	0.01422
c1 = 0.004763	–	–	0.006018	0.007749	0.008675	0.009566	0.01107	0.01401
c1 = 0.005	1.1e-09	1.48e-09	–	–	–	–	–	–
c1 = 0.005327	–	–	0.005942	0.007661	0.008577	0.009439	0.01094	0.01384
c1 = 0.005884	–	–	0.005866	0.00757	0.008481	0.00932	0.01079	0.01368
c1 = 0.006434	–	–	0.005795	0.007486	0.00839	0.009208	0.0107	0.01352
c1 = 0.006978	–	–	0.005725	0.007395	0.008298	0.009099	0.01057	0.01337
c1 = 0.007516	–	–	0.005655	0.00731	0.008205	0.008991	0.01046	0.01322
c1 = 0.008	1.05e-09	1.42e-09	–	–	–	–	–	–
c1 = 0.008048	–	–	0.005593	0.007232	0.00812	0.008893	0.01036	0.01308
c1 = 0.008573	–	–	0.005534	0.007159	0.00804	0.0088	0.01027	0.01295
c1 = 0.009093	–	–	0.005477	0.007089	0.007965	0.008713	0.01018	0.01283
c1 = 0.009607	–	–	0.005427	0.007027	0.007896	0.008633	0.01009	0.01271
c1 = 0.01	1.01e-09	1.38e-09	–	–	–	–	–	–
c1 = 0.01012	–	–	0.005377	0.006966	0.007829	0.008556	0.01001	0.0126
c1 = 0.01062	–	–	0.005329	0.006904	0.007761	0.008478	0.009923	0.01249
c1 = 0.01111	–	–	0.005284	0.006844	0.007695	0.008404	0.009841	0.01238
c1 = 0.01161	–	–	0.005242	0.006785	0.00763	0.008329	0.00976	0.01228
c1 = 0.01209	–	–	0.005196	0.006729	0.007567	0.008257	0.009679	0.01217
c1 = 0.01257	–	–	0.005156	0.006675	0.007501	0.00819	0.009603	0.01208
c1 = 0.01305	–	–	0.005118	0.006626	0.00745	0.008126	0.009532	0.01198
c1 = 0.01352	–	–	0.005078	0.006576	0.007395	0.008064	0.009461	0.01189
c1 = 0.01398	–	–	0.005038	0.006528	0.007343	0.008005	0.009394	0.01181
c1 = 0.01444	–	–	0.005003	0.006483	0.007291	0.007946	0.009328	0.01172
c1 = 0.0149	–	–	0.004966	0.006437	0.007239	0.007888	0.009261	0.01164
c1 = 0.01535	–	–	0.004929	0.00639	0.007188	0.007831	0.009196	0.01155
c1 = 0.01579	–	–	0.004894	0.006343	0.007138	0.007776	0.009132	0.01147
c1 = 0.01623	–	–	0.004861	0.006302	0.00709	0.007722	0.009069	0.01139
c1 = 0.01667	–	–	0.004832	0.006262	0.007045	0.007671	0.00901	0.01132

CN[C@@H](C)[C@H](O)c1ccccc1.Cl [ephedrine hydrochloride] + O
Conditions	binary diffusion coefficient, 298.15 K [m2/s]	binary diffusion coefficient, 310.15 K [m2/s]	molar conductivity, 283.15 K [S·m2/mol]	molar conductivity, 293.15 K [S·m2/mol]	molar conductivity, 298.15 K [S·m2/mol]	molar conductivity, 303.15 K [S·m2/mol]	molar conductivity, 310.15 K [S·m2/mol]	molar conductivity, 323.15 K [S·m2/mol]
c1 = 0.00125	1.15e-09	1.57e-09	–	–	–	–	–	–
c1 = 0.00184	–	–	0.006571	0.008375	0.009463	0.01041	0.01195	0.01495
c1 = 0.002438	–	–	0.006463	0.008198	0.009282	0.01023	0.01173	0.01471
c1 = 0.0025	1.1e-09	1.56e-09	–	–	–	–	–	–
c1 = 0.00303	–	–	0.006355	0.008059	0.009127	0.01006	0.01154	0.01449
c1 = 0.003614	–	–	0.00628	0.007907	0.008991	0.009914	0.01139	0.01427
c1 = 0.004191	–	–	0.006181	0.007775	0.00886	0.009802	0.01125	0.01408
c1 = 0.004761	–	–	0.006103	0.007663	0.008753	0.009663	0.01108	0.01392
c1 = 0.00499	1.09e-09	1.5e-09	–	–	–	–	–	–
c1 = 0.005324	–	–	0.006044	0.007564	0.008653	0.009567	0.01096	0.01377
c1 = 0.005881	–	–	0.00599	0.007468	0.008556	0.009474	0.01085	0.01356
c1 = 0.006431	–	–	0.005925	0.007377	0.008465	0.009363	0.01074	0.01344
c1 = 0.006975	–	–	0.00586	0.007288	0.008374	0.009271	0.01064	0.01332
c1 = 0.00746	1.03e-09	1.45e-09	–	–	–	–	–	–
c1 = 0.007513	–	–	0.005794	0.007199	0.008283	0.009197	0.01052	0.01318
c1 = 0.008044	–	–	0.005736	0.007119	0.008199	0.00911	0.01042	0.01307
c1 = 0.008569	–	–	0.005685	0.007044	0.00812	0.009028	0.01033	0.01295
c1 = 0.009089	–	–	0.005635	0.006974	0.008044	0.008949	0.01023	0.01284
c1 = 0.009602	–	–	0.005584	0.006908	0.007975	0.008878	0.01015	0.01274
c1 = 0.01	1e-09	1.41e-09	–	–	–	–	–	–
c1 = 0.01011	–	–	0.005537	0.006846	0.007908	0.008807	0.01007	0.01264
c1 = 0.01061	–	–	0.005491	0.006795	0.00784	0.008734	0.009982	0.01254
c1 = 0.01111	–	–	0.005446	0.006723	0.007774	0.008665	0.009901	0.01244
c1 = 0.0116	–	–	0.005401	0.006663	0.007709	0.008596	0.009821	0.01234
c1 = 0.01209	–	–	0.005359	0.006604	0.007646	0.008528	0.009742	0.01226
c1 = 0.01256	–	–	0.00532	0.006549	0.007586	0.008464	0.009673	0.01215
c1 = 0.01304	–	–	0.005281	0.006498	0.00753	0.008437	0.009602	0.01206
c1 = 0.01351	–	–	0.005244	0.006448	0.007474	0.008343	0.009533	0.01197
c1 = 0.01397	–	–	0.00521	0.0064	0.007422	0.008286	0.009467	0.01189
c1 = 0.01443	–	–	0.005176	0.006354	0.00737	0.00823	0.009401	0.01181
c1 = 0.01489	–	–	0.00514	0.006307	0.007318	0.008174	0.009336	0.01172
c1 = 0.01534	–	–	0.005107	0.00626	0.007267	0.008118	0.009271	0.01164
c1 = 0.01579	–	–	0.005075	0.006217	0.007217	0.008064	0.009208	0.01156
c1 = 0.01623	–	–	0.005042	0.006174	0.00717	0.008012	0.009146	0.01149
c1 = 0.01666	–	–	0.005011	0.006133	0.007125	0.007962	0.009088	0.01141
